What was measured:
[1] = tested on: denatured collagen type-IV; experiment: 99Tc-CLK-Peptide competitive binding to denatured collagen type-IV (gamma counter); details: collagen 10 μg/ml; 99Tc-CLK-peptide 10 μg/ml
Method: FIG. 18 Inhibition of 99Tc-CLK-Peptide binding by unlabeled HUI77.
FIG. 19 Inhibition of Binding of Labeled CLK-Peptide to Denatured Collagen Type-IV by mAb HUI77. Denatured collagen type-IV (10 μg/ml) was coated on microtiter wells and binding of 99Tc-labeled CLK-Peptide in the presence or absence of unlabeled CLK-peptide or mAb HUI77 was measured. As shown in the figure, 99Tc-CLK-peptide (10 μg/ml, 50 μl/well) specifically binds to denatured collagen type-IV (first bar from left). […] 99Tc-CLK-peptide was also allowed to bind to denatured collagen type-IV in the presence or absence of Mab HUI77 (fourth and fifth bars from left). […] These findings provide further evidence that the CLK-peptide binds to a similar if not identical epitope recognized by Mab HUI77.
^99Tc-CLK-Peptide was used in competitive binding studies to further characterize the CLK epitope. To evaluate the ability of HUI77 to compete with binding to denatured type-IV collagen, type-IV collagen was denatured at 60° C. for 15 minutes at a concentration of […] in PBS. […] The supernatant, washes and collagen-coated wells were counted in a gamma counter (1 minute counts in duplicate).
In addition, denatured collagen type-IV (10 μg/ml) was coated on microtiter wells and binding of ^99Tc-labeled CLK-Peptide in the presence or absence of either unlabeled CLK-peptide or mAb HUI77 was measured using a gamma counter. […]

[2] = tested on: Human melanoma (M21) cells; experiment: M21 cell adhesion, CLK-peptide combined with mAb HUIV26 (Example 10); type: cell-based; details: data not shown
Method: FIG. 10 Effect of mAb HUIV26 in Combination with CLK-Peptide on Adhesion of M21 Cells to Denatured Collagen Type IV. Microtiter wells were coated with denatured collagen type-IV. M21 cells were allowed to bind to the coated substrates in the presence of CLK-peptide, mAb HUIV26, or both.
The effects of CLK-peptide, mAb HUIV26, and the combination of both on tumor cell adhesion were examined in vitro. Non-tissue culture treated 48-well microtiter plates were coated overnight at 4° C. with either native or denatured collagen type-IV (5 μg/ml). The plates were then blocked with 1% BSA in PBS for 1 hour at 37° C. Human melanoma (M21) cells at 10^5 cells/well in adhesion buffer were allowed to attach to the coated wells in the presence of either CLK-peptide (100 μg/ml), or mAb HUIV26 (100 μg/ml), or both together (CLK-peptide 25 μg/ml, mAb HUIV26 100 μg/ml). The cells were washed 2× with PBS, stained with crystal violet and destained with 10% acetic acid. Cell adhesion was quantified by measuring the O.D. of eluted dye at 600 nm. Data bars represent the mean O.D.±standard deviation from triplicate wells.

[3] = tested on: Human melanoma cells (M21); experiment: M21 cell adhesion to denatured or native collagen type-IV or fibronectin (Example 9); type: cell-based
Method: Non-tissue culture treated 48-well plates were coated with denatured collagen type-IV at 10 μg/ml. […] Cell adhesion was quantified by measuring the O.D. of eluted dye at 600 nm. Data bars represent the mean O.D.±standard deviation from triplicate wells. Assays were completed 2 to 3 times with similar results.
Non-tissue culture treated 48-well plates were coated with native collagen type-IV or fibronectin at 10 μg/ml. Human melanoma cells (M21) were allowed to attach to the coated wells in the presence or absence of CLK-Peptide or control peptide CTW at 0-100 μg/ml. Cell adhesion was quantified by measuring the O.D. of eluted dye at 600 nm. Data bars represent the mean O.D.±standard deviation from triplicate wells. Assays were completed 2 to 3 times with similar results. A. Adhesion to native collagen type-IV. B. Adhesion to Fibronectin.
Adhesion assays were performed to study the effects of CLK-peptide on tumor cell adhesion in vitro. Microtiter wells were coated with either native collagen type-IV or the control ECM protein fibronectin. Malignant melanoma cells (M21) were allowed to bind to the coated substrates in the presence or absence of CLK peptide or a control peptide, CTW.

[4] = tested on: GL261 tumor cells; experiment: GL261 cell migration, CLK-peptide combined with ionizing radiation (Example 22); type: cell-based, murine; details: 50 μg/ml + 5.0 Gy; 6 hours; versus controls
Method: The effects, of combining CLK-peptide with radiation therapy, on invasive tumor cell migration are examined. GL261 cells are resuspended in migration buffer in the presence or absence of CLK-peptide or control (50 μg/ml). The cells are added to the coated wells and allowed to incubate for 1 hour, and either left untreated or irradiated with a single fraction dose of ionizing radiation (5.0 Gy). The GL261 tumor cells are allowed to migrate for 6 hours. Tumor cells that have migrated to the underside of the coated membranes are quantified by staining with crystal violet, and the optical densities of cell-associated dye are measured with a microplate reader at a wavelength of 600 nm. CLK-peptide in combination with ionizing radiation is found to inhibit GL261 cell migration on denatured collagen type-IV substantially when compared to controls.

[5] = tested on: bFGF-induced angiogenesis in chick chorioallantoic membrane (CAM); experiment: bFGF-induced angiogenesis in the chick CAM model; type: in vivo
Description: FIG. 3A, FIG. 3B, and FIG. 3C depict a chick chorioallantoic membrane (CAM) without bFGF-induced angiogenesis, a CAM following bFGF-induced angiogenesis, and a CAM treated with CLK-peptide after bFGF-induced angiogenesis, respectively.
FIG. 4 is a chart which illustrates quantification of CAM angiogenic blood vessels following bFGF-induced angiogenesis without subsequent CLK-peptide treatment and CAM angiogenic blood vessels following bFGF-induced angiogenesis with subsequent CLK-peptide treatment.
Angiogenesis was induced within the chorioallantoic membrane (CAM) of 10-day old chick embryos with bFGF. Twenty-four hours later, 8-10 of the embryos were treated with a single intravenous injection of CLK-peptide (100 ug/embryo). At the end of a 3-day incubation period, the CAM tissues were removed for analysis. […] (FIGS. 3 (a),(b),(c)) The single injection of CLK-peptide inhibited bFGF by greater than 95%. […] Eight to ten chick embryos were tested in each of the two groups, and the experiment was repeated three times for a total of 24-30 chick embryos tested.

H-CLKQNGGNFSLG-OH [CLK-peptide, NH2-C-L-K-Q-N-G-G-N-F-S-L-G-COOH]
inhibition of 99Tc-CLK-peptide binding to denatured collagen type-IV [1]: dose-dependent inhibition
effect on M21 cell adhesion to native collagen type-IV [2]: neither had any effect
effect on M21 cell adhesion to fibronectin ([3]; 0-100 μg/ml): Neither CLK-Peptide nor the control peptide had any effect
effect on M21 cell adhesion to native triple helical collagen type-IV ([3]; 0-100 μg/ml): Neither CLK-Peptide nor the control peptide had any effect
maximal inhibition of M21 cell attachment to denatured collagen type-IV ([3]; at 100 μg/ml): approximately 65%
inhibition of GL261 cell migration on denatured collagen type-IV in combination with ionizing radiation [4]: substantially
adverse effects following injection ([5]; chick embryos, 100 ug/embryo intravenous): No adverse effects
number of branching vessels within the area of the filter disc ([5]; single intravenous injection 100 ug/embryo): dramatic reduction
inhibition of bFGF (induced angiogenesis) ([5]; single intravenous injection 100 ug/embryo, 3-day incubation): greater than 95%
